Measurements published in the supplement of paper PMC11208160.

Assay: recombinant UMI read abundance after kanamycin selection (control-corrected) (log10(CPM+1)); higher = more efficient recombination; extreme values may be limits of the assay; sequences stand for … in AGTGCAGAGAAAATCGGCCAGTTTTCTCTGCCTGCAGTCCGCATGCCGTGGGACCCCTTGGGTTCTAACCTGTTGCCTAGATTTATGCAGCGGACTGCCTTTCTCCCAAAGTGATAAACCGG…AGGTTGGTTTCACT; site = the 11-nt donor
In short: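 Each donor and donor-binding-loop pair was tracked by a 12-nt UMI on a plasmid carrying a promoterless kanamycin gene. With a second plasmid supplying a fixed target and T7-inducible IS621 bridge recombinase, the pool was plated in Escherichia coli on IPTG (0.07 mM) plus kanamycin or unselected. Sequencing of recombinant UMIs across the donor–target junction gave counts expressed as log10(CPM+1) after replicate averaging and control-derived scaling.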
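Note: IS621 bridge recombinase in Escherichia coli cells against a fixed T5 target plasmid.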

Going from “TAAAGTCCATGGACCGGTTTTCCCGGTAATCCGTATTTGAA (site TAAAGTCCTTT)” to “TAACCCACATGGACCGGTTTTCCCGGTAATCCGTATTTGTG (site TAACCCACTCA)”, the “recombinant UMI read abundance (log10)” value falls from 0.775 to 0.0264.

“TAACCTTCATGGACCGGTTTTCCCGGTAATCCGTATTTGGT (site TAACCTTCTAC)” and “TAACCTTCATGGACCGGTTTTCCCGGTAATCCGTATTTGGT (site TACCCTTCTAC)” are within 0.2 log units of each other in “recombinant UMI read abundance (log10)” value: 0.00557 for the first, 0.00501 for the second.

Going from “TAACCTTCATGGACCGGTTTTCCCGGTAATCCGTATTTGGT (site TAGCCTTCTAC)” to “TAACCTTCATGGACCGGTTTTCCCGGTAATCCGTATTTGGT (site TATCCTTCTAC)”, the “recombinant UMI read abundance (log10)” value falls from 0.244 to 0.

Going from “TAACTAGCATGGACCGGTTTTCCCGGTAATCCGTATTTGCG (site TAACTAGCTCG)” to “TAACTCCCATGGACCGGTTTTCCCGGTAATCCGTATTTGGC (site TAACTCCCTGC)”, the “recombinant UMI read abundance (log10)” value rises from 0 to 0.847.

Compared with “TAACTTCCATGGACCGGTTTTCCCGGTAATCCGTATTTGCA (site TAACTTCCTTG)”, “TAAGAAACATGGACCGGTTTTCCCGGTAATCCGTATTTGCT (site TAAGAAACTAG)” is higher in “recombinant UMI read abundance (log10)” value: 0.949 for the first, 2.12 for the second.

Compared with “TAAGACCCATGGACCGGTTTTCCCGGTAATCCGTATTTGTT (site TAAGACCCTAA)”, “TAAGCAGCATGGACCGGTTTTCCCGGTAATCCGTATTTGCT (site AAAGCAGCTAG)” is lower in “recombinant UMI read abundance (log10)” value: 0.806 for the first, 0.00963 for the second.

Going from “TAAGCAGCATGGACCGGTTTTCCCGGTAATCCGTATTTGCT (site CAAGCAGCTAG)” to “TAAGCAGCATGGACCGGTTTTCCCGGTAATCCGTATTTGCT (site GAAGCAGCTAG)”, the “recombinant UMI read abundance (log10)” value falls from 0.371 to 0.00441.

Compared with “TAAGCAGCATGGACCGGTTTTCCCGGTAATCCGTATTTGCT (site TAAGCAGCTAG)”, “TAAGGTCCATGGACCGGTTTTCCCGGTAATCCGTATTTGTA (site TAAAGTCCTTA)” is lower in “recombinant UMI read abundance (log10)” value: 2.32 for the first, 0.294 for the second.

First: TAAGGTCCATGGACCGGTTTTCCCGGTAATCCGTATTTGTA (site TAACGTCCTTA)
Second: TAAGGTCCATGGACCGGTTTTCCCGGTAATCCGTATTTGTA (site TAAGGTCCTTA)
The “recombinant UMI read abundance (log10)” value of the first is lower: 0.0087 for the first, 2.08 for the second.

First: TAAGGTCCATGGACCGGTTTTCCCGGTAATCCGTATTTGTA (site TAATGTCCTTA)
Second: TAAGGTGCATGGACCGGTTTTCCCGGTAATCCGTATTTGTA (site TAAGGTGCTTA)
The “recombinant UMI read abundance (log10)” value of the first is lower: 0.00238 for the first, 2.58 for the second.

“TAAGTCACATGGACCGGTTTTCCCGGTAATCCGTATTTGGG (site AAAGTCACTCC)” and “TAAGTCACATGGACCGGTTTTCCCGGTAATCCGTATTTGGG (site CAAGTCACTCC)” are within 0.2 log units of each other in “recombinant UMI read abundance (log10)” value: 0.0244 for the first, 0.0119 for the second.

“TAAGTCACATGGACCGGTTTTCCCGGTAATCCGTATTTGGG (site GAAGTCACTCC)” and “TAAGTCACATGGACCGGTTTTCCCGGTAATCCGTATTTGGG (site TAAGTCACTCC)” are within 0.2 log units of each other in “recombinant UMI read abundance (log10)” value: 0.00751 for the first, 0.00997 for the second.

First: TAAGTGCCATGGACCGGTTTTCCCGGTAATCCGTATTTGAC (site TAAGTGCCTGT)
Second: TAATATCCATGGACCGGTTTTCCCGGTAATCCGTATTTGTC (site TAATATCCTGA)
The “recombinant UMI read abundance (log10)” value of the first is higher: 0.999 for the first, 0.252 for the second.

Compared with “TAATGAGCATGGACCGGTTTTCCCGGTAATCCGTATTTGGC (site TAATGAGCTAC)”, “TAATGAGCATGGACCGGTTTTCCCGGTAATCCGTATTTGGC (site TAATGAGCTCC)” is lower in “recombinant UMI read abundance (log10)” value: 0.253 for the first, 0.0259 for the second.

Going from “TAATGAGCATGGACCGGTTTTCCCGGTAATCCGTATTTGGC (site TAATGAGCTGC)” to “TAATGAGCATGGACCGGTTTTCCCGGTAATCCGTATTTGGC (site TAATGAGCTTC)”, the “recombinant UMI read abundance (log10)” value falls from 2.42 to 0.585.

“TAATGGCCATGGACCGGTTTTCCCGGTAATCCGTATTTGAT (site TAATGGCCTAT)” and “TACAAACCATGGACCGGTTTTCCCGGTAATCCGTATTTGGT (site AACAAACCTAC)” are within 0.2 log units of each other in “recombinant UMI read abundance (log10)” value: 0.00507 for the first, 0 for the second.

“TACAAACCATGGACCGGTTTTCCCGGTAATCCGTATTTGGT (site CACAAACCTAC)” and “TACAAACCATGGACCGGTTTTCCCGGTAATCCGTATTTGGT (site GACAAACCTAC)” are within 0.2 log units of each other in “recombinant UMI read abundance (log10)” value: 0.0034 for the first, 0 for the second.

“TACAAACCATGGACCGGTTTTCCCGGTAATCCGTATTTGGT (site TACAAACCTAC)” and “TACAATTCATGGACCGGTTTTCCCGGTAATCCGTATTTGCC (site TACAATTCTGG)” are within 0.2 log units of each other in “recombinant UMI read abundance (log10)” value: 0.00495 for the first, 0.00632 for the second.

Going from “TACAATTCATGGACCGGTTTTCCCGGTAATCCGTATTTGCC (site TCCAATTCTGG)” to “TACAATTCATGGACCGGTTTTCCCGGTAATCCGTATTTGCC (site TGCAATTCTGG)”, the “recombinant UMI read abundance (log10)” value rises from 0 to 0.434.

First: TACAATTCATGGACCGGTTTTCCCGGTAATCCGTATTTGCC (site TTCAATTCTGG)
Second: TACAGCGCATGGACCGGTTTTCCCGGTAATCCGTATTTGGC (site TACAGCGCTGC)
The “recombinant UMI read abundance (log10)” value of the first is lower: 0 for the first, 2.37 for the second.

First: TACAGTACATGGACCGGTTTTCCCGGTAATCCGTATTTGGT (site TACAGTACTAC)
Second: TACAGTCCATGGACCGGTTTTCCCGGTAATCCGTATTTGCG (site TACAGTCCTCG)
The “recombinant UMI read abundance (log10)” value of the first is higher: 0.439 for the first, 0.004 for the second.

First: TACATAGCATGGACCGGTTTTCCCGGTAATCCGTATTTGGG (site TACATAGCTCC)
Second: TACATGGCATGGACCGGTTTTCCCGGTAATCCGTATTTGCT (site TACATGGCTAG)
The “recombinant UMI read abundance (log10)” value of the first is lower: 0.013 for the first, 1.32 for the second.

First: TACCACACATGGACCGGTTTTCCCGGTAATCCGTATTTGTC (site TACCACACTGA)
Second: TACCTAGCATGGACCGGTTTTCCCGGTAATCCGTATTTGAA (site TAACTAGCTTT)
The “recombinant UMI read abundance (log10)” value of the first is higher: 2.09 for the first, 0 for the second.

“TACCTAGCATGGACCGGTTTTCCCGGTAATCCGTATTTGAA (site TACCTAGCTTT)” and “TACCTAGCATGGACCGGTTTTCCCGGTAATCCGTATTTGAA (site TAGCTAGCTTT)” are within 0.2 log units of each other in “recombinant UMI read abundance (log10)” value: 0.00543 for the first, 0 for the second.

“TACCTAGCATGGACCGGTTTTCCCGGTAATCCGTATTTGAA (site TATCTAGCTTT)” and “TACCTGACATGGACCGGTTTTCCCGGTAATCCGTATTTGTG (site TACCTGACTCA)” are within 0.2 log units of each other in “recombinant UMI read abundance (log10)” value: 0.0166 for the first, 0.0209 for the second.

First: TACGACGCATGGACCGGTTTTCCCGGTAATCCGTATTTGGG (site TACGACGCTCC)
Second: TACGGAACATGGACCGGTTTTCCCGGTAATCCGTATTTGCT (site TACGGAACTAG)
The “recombinant UMI read abundance (log10)” value of the first is lower: 0.012 for the first, 0.249 for the second.

“TACGGACCATGGACCGGTTTTCCCGGTAATCCGTATTTGTC (site TACGGACCTGA)” and “TACGGCCCATGGACCGGTTTTCCCGGTAATCCGTATTTGCG (site TACGGCCCTCG)” are within 0.2 log units of each other in “recombinant UMI read abundance (log10)” value: 0 for the first, 0.024 for the second.

First: TACGTCACATGGACCGGTTTTCCCGGTAATCCGTATTTGGG (site TACGTCACTCC)
Second: TACGTGACATGGACCGGTTTTCCCGGTAATCCGTATTTGCA (site TACGTGACTTG)
The “recombinant UMI read abundance (log10)” value of the first is lower: 0.0239 for the first, 2.29 for the second.

Compared with “TACTAGACATGGACCGGTTTTCCCGGTAATCCGTATTTGCT (site TACTAGACTAG)”, “TACTAGACATGGACCGGTTTTCCCGGTAATCCGTATTTGCT (site TACTCGACTAG)” is lower in “recombinant UMI read abundance (log10)” value: 1.84 for the first, 0.00336 for the second.

“TACTAGACATGGACCGGTTTTCCCGGTAATCCGTATTTGCT (site TACTGGACTAG)” and “TACTAGACATGGACCGGTTTTCCCGGTAATCCGTATTTGCT (site TACTTGACTAG)” are the same in “recombinant UMI read abundance (log10)” value: 0 for the first, 0 for the second.

Compared with “TACTAGTCATGGACCGGTTTTCCCGGTAATCCGTATTTGGA (site TACTAGTCTTC)”, “TACTCCTCATGGACCGGTTTTCCCGGTAATCCGTATTTGCC (site AACTCCTCTGG)” is lower in “recombinant UMI read abundance (log10)” value: 1.59 for the first, 0.934 for the second.

Compared with “TACTCCTCATGGACCGGTTTTCCCGGTAATCCGTATTTGCC (site CACTCCTCTGG)”, “TACTCCTCATGGACCGGTTTTCCCGGTAATCCGTATTTGCC (site GACTCCTCTGG)” is lower in “recombinant UMI read abundance (log10)” value: 1.86 for the first, 0.715 for the second.

Going from “TACTCCTCATGGACCGGTTTTCCCGGTAATCCGTATTTGCC (site TACTCCTCTGG)” to “TACTCGACATGGACCGGTTTTCCCGGTAATCCGTATTTGCT (site TACTAGACTAG)”, the “recombinant UMI read abundance (log10)” value falls from 2.63 to 0.956.

Going from “TACTCGACATGGACCGGTTTTCCCGGTAATCCGTATTTGCT (site TACTCGACTAG)” to “TACTCGACATGGACCGGTTTTCCCGGTAATCCGTATTTGCT (site TACTGGACTAG)”, the “recombinant UMI read abundance (log10)” value falls from 1.49 to 0.00865.
